Experimental data from patent publication US6642365B1, “Anti-(retro)viral conjugates of saccharides and acetamidino or guanidino compounds” (Yeda Research and Development Co. Ltd., priority 2001, dated 2003).

Assays:
[1] = tested on: MT-2 cells as well as PMBC lines ETH and IS; conditions: ratio CC50/EC50
Method: (§1) The cells were infected by incubation with different titers of the HIV-1 strains for 2 hrs at 37° C. in the presence or absence of the AAC of the invention. Then the cells were washed from the virus by centrifugation at 400 g and the supernatants were discarded. The cells were resuspended in culture medium, supplemented with different concentrations of the test compounds. The cells were allowed to proliferate for 5 days, the number of viable cells was quantified by a tetrazolium-based colorimetric method (CellTiter 96® AQueous One solution Cell Proliferation Assay, Promega). Anti-HIV activity in P4-CCR5 MAGI cells was done as follows: cells (1×10^5/ml) were infected with 10 ng/ml of p24 antigen of HIV-1 Ba-L in the presence of varying concentrations of the test compound. 24 hours post infection, cells were washed twice with PBS and resuspended in the medium containing the appropriate drug concentration. Five days after infection the cells were washed with PBS and evaluated for β-galactosidase activity.

HIV-1 2D = format: cell-based
Method: (§2) T-tropic HIV-1 laboratory strains IIIb, 2D as well as AZT-resistant and UC781-resistant strains were utilized in this study, along with clinical isolate (clade C). HIV-1 clinical isolate, resistant to AZT is a generous gift from Dr. Mark A. Wainberg, McGill AIDS Center, McGill University, Montreal, Canada.
(§3) MT-2 or MT-4 cells were cultured in RPMI 1640 supplemented with 10% fetal calf serum (FCS), 0.2 mM glutamine and penicilline/streptomycin/nistatin mixture. The cells were propagated in 96-well tissue culture plates at the density of 5×10^4 cells per well. Peripheral mononuclear blood cells (PMBC) were separated from whole blood samples by centrifugation in Ficoll gradient for 10 min at 400 g. PMBC were cultured in the same medium in 24-well tissue culture plates at the density of about 10^6 cells per well.

HIV-1 IIIB = assay: Anti-HIV assay, syncytium formation and tetrazolium colorimetric assay; format: cell-based; conditions: range over IIIb, 2D, AZT resistant, UC781 resistant and clade C HIV-1
Method: as §2, §3

[2] = tested on: HIV-1 clinical isolate, resistant to AZT; assay: as above; format: cell-based; conditions: average of two independent experiments in duplicates; read-out: EC50 HIV-1 AZTres
Method: as §2, §3

[3] = tested on: HIV-1 clinical isolate (clade C); assay: as above; format: cell-based
Method: as §2, §3

MT-4 cells = assay: Cytotoxicity in MT-4 cells, MTT; format: cell-based, human; conditions: viability of MT-4 cells, MTT assay
Method: as §1

[4] = average of two independent experiments in duplicates

Compound	TI50 [1]	antiviral effect in the presence of AZT (HIV-1 2D; HIV-1 2D and clade C)	EC50 (HIV-1 2D; [4]) [µM]	EC50 (HIV-1 IIIB) [µM]	EC50 [2] [µM]	inhibition of virus growth ([3]; MT-2 cells infected in presence of 20 μM R3G or 10 μM NeoR, then 3 days without AAC) [%]	EC50 [3, 4] [µM]	CC50 (MT-4 cells) [µM]
Triargininamido-gentamicin conjugate [R3G]	50-85	additive	10	6 to 10	8	30	6	–
N=C(N)NCCCC(N)C(=O)NCC1OC(OC2C(NC(=O)C(N)CCCNC(=N)N)CC(NC(=O)C(N)CCCNC(=N)N)C(OC3OC(CO)C(O)C(NC(=O)C(N)CCCNC(=N)N)C3O)C2O)C(O)C(O)C1O (centres unmarked) [R4K, Tetraargininamido-kanamycin A conjugate]	–	–	–	–	–	–	–	> 1130
